Results as given in patent US5470714A, “One-step free fatty acid determination method” (Lidak Pharmaceuticals, priority 1993, dated 1995).
Where two headings read alike, the source gives them in different places.

Columns and labels:
[1] = target: T1, ADIFAB (Rattus norvegicus, UniProt P02693); experiment: Specificity of ADIFAB: effect of potential competitor molecules on ADIFAB fluorescence and on oleic acid binding; conditions: up to maximum concentrations: lysolecithin 100mM, sphingosine 100mM, bilirubin 50mM, leukotriene C4 32mM, 5-HETE 10mM, prostaglandin D2 5mM; from ethanol 0.1% by volume
T1 construct: acrylodan covalently attached at Lys27 (chemical label, no substitution)
T1 sequence (P02693 1-132): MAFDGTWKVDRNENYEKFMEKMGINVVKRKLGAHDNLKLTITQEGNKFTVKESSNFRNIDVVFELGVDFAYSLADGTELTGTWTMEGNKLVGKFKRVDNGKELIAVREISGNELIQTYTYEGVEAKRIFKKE
Procedure: ADIFAB is highly specific for long chain FA. […] The interaction between ADIFAB and a variety of molecules that are either formed in association with FA or coexist with FA in plasma and might therefore compete with FA for binding to ADI FAB were examined. The following molecules were investigated up to the maximum concentrations indicated in parenthesis; lysolecithin (100mM), sphingosine (1 00mM), bilirubin (50mM), leukotriene C4 (32mM), (5S)-5- Hydroxy-6,8, 11,14-eicasatetaenoic acid (5-HETE) (10mM), and prostaglandin D2 (5mM). […] (Since these molecules are water insoluble they were added to ADIFAB from ethanol, at 0.1% by volume, which itself causes an Ro increase by about 12% but has no effect on the Kd for oleate binding. )

[2] = target: ADIFAB (Acrylodan derivatized native rat I-FABP, Lys27) (Rattus norvegicus, UniProt P02693); experiment: biochemical; type: binding; conditions: for Kd relative to oleate (fold greater than oleate): normalized to oleate
Procedure: In most of the studies FFA was added to ADIFAB, in a buffer (A) consisting of 10 Mm HEPES, 150 Mm NaCI, 5 mM KCI, and 1 mM NaHPO4 at pH 7.4, as the sodium salt of the fatty acid. […] FA bind to most surfaces and values of the total FA concentration ([FAT]) were corrected for FA binding to cuvette and container walls. This binding was determined using trace amounts of […] labeled FA and, separately, ADIFAB florescence to determine the degree of FA loss upon transfer from one container to another. […] To minimize FA binding to surfaces, the monomer concentrations of stock solutions of the Na salts were maintained at pH >9.0 in water, and were warmed to >37° C. just prior to use. The polyunsaturated forms of the FA are subject to oxidation and it was observed that dissociation constants for binding to ADIFAB (Kd) were considerably greater for the oxidized FA. Care was taken to reduce the exposure of the FA salts to oxygen (all handling was carried out under Argon) and to store them at -20° C.
The concentrations of FA in the aqueous phase (FFA) and FA bound to ADIFAB ([FAb ]) were determined from the ratio of fluorescence emission intensities at 432 and 505 nm (R). The values FFA and [FAb ]were related to the ratio of intensities essentially by the method of Grynkiewicz et. al. (Grynkiewicz, G., Poenie, M., & Tsien, R. Y. (1985) J. Biol. Chem. 260, 3440-3450), according to which:
[FAb ]=[ADIFABtotal ]Q(fr)/(1-fr+FRQ) FR
are the ADIFAB intensities with zero and saturating concentrations of FFA, Ro is the intensity ratio in the absence of FFA and Rmax is the value when ADIFAB is saturated.
Because of the limiting solubility of long chain FA in aqueous solution Rmax and Q cannot. in general, be determined directly. To determine Rmax and Q, ADIFAB was titrated with lauric acid (12:0) whose high CMC allowed maximum R values (~10-11) to be measured that were considerably greater than with longer chain FA. From this titration a linear correlation was found between Q and R. Using Q, R pairs predicted by this relationship, a two parameter (Kd and Rmax) least squares analysis of each FA was done using the equation for equilibrium binding;
1/[FAb ]=(Kd/[ADIFAB])/FFA+1/[ADIFAB] (3)
Optimal Q and Rmax values obtained in this analysis were in the range 17-22 and 10 and 13, respectively, with average values of 19.5 and 11.5. Final Kd values for each FA were then determined by least squares analysis of equation (3) with Q and Rmax fixed at 19.5 and 11.5, respectively.
Fluorescence measurements to monitor Acrylodan fluorescence in various solvents, to monitor adduct formation, and to obtain complete spectra were carried out using an SLM 8000C fluorometer. Measurements of the 505/432 intensity ratios (R values) used to monitor the FFA titrations of ADIFAB were done with either the SLM 8000C or a Perkin-Elmer MPF-2A fluorometer.
ADIFAB dose response to FFA and FFA aggregate formation was measured. The ratio of fluorescent intensities at emission wavelengths of 505/432 nm were measured as a function of added Na salts of several FFA. Resulting data are depicted graphically in FIGS. 6A, 6B and 6C. Conditions were similar to those used in FIG. 3 except that 100mM EGTA was used in obtaining the data depicted in FIGS. 6A and 6B, while the data depicted in FIG. 6C was obtained using 1 mM CaCl2. Measured R values were used to determine FFA and [FFAb]using equations (1) and (2). The solid curves through the data of FIGS. 6A and 6C represent best fits of equation (3) obtained using a non-linear least squares algorithm. Aggregate formation was detected by measuring 90° light scattering from FFA in the buffer of FIG. 3 containing no added calcium and titrated with the Na salts of the FFA as described above, see FIG. 6B. The smoothed curves through the data, intended to guide-the-eye, indicate that aggregate formation, as detected by a sharp increase in light scattering, is approximately coincident with the maximum R value observed in the experiment related to FIG. 6A. […]

[3] = Fluorescence response of fluorescent-FABP probes to fatty acid binding; type: biochemical
From the text: Principles and exemplary methods for constructing probes as described and defined herein and methods for determining FFA levels are described in detail below. Using these principles fourteen different fluorescent-FABP derivatives have been constructed. This has been done using 3 different native FABPs (rat intestine (I-FABP), human adipocyte (A-FABP), and human heart (H-FABP)) plus 4 site-specific mutants of two of these (I-FABP, (Thr83Cys83, Thr81Cys81, Lys27Cys27 and H-FABP, Thr27Lys27), and these proteins have been derivatized with 4 different fluorophores (acrylodan, danzyl aziridine, 4-[N-[(2-iodoacetoxy)ethyl]-N-methylamino]-7-nitrobenz-2-oxa1,3-diazole ester (IANBDE), 4-[N-[(2-iodoacetoxy)ethyl]-N-methylamino]-7-nitrobenz-2-oxa-1,3-diazole these derivatives can serve as FFA probes, to some degree. To date, however, ADIFAB remains the one that has optimal properties for current applications. Obviously, by occupying, partially, the binding site with a fluorophore, FA must compete for its site and therefore the FA binding constant for the FABP may be altered from the native protein. This is indeed the case for ADIFAB for which the Kd is about 10 fold greater than for the native protein. So long as FA can bind, however, the derivatized molecule can still function as a FFA probe and so long as the probe's dynamic range is sufficient (as it is for ADIFAB, IANBDE and IANBDA) then FFA levels over a wide range, including those that are physiologic, can be measured.
The Cys27 mutant of I-FABP (Lys27 to Cys27) with acrylodan, IANBDE and IANBDA have also been labeled using the technique described. […] This is the behavior predicted from the construction principles set forth herein, and reflects the shorter tethering arm to Cys27 as compared to Lys27 which prevents the deeper insertion into the binding site that is observed in the Lys27 derivative. […] Thus, those skilled in the art can with considerable confidence predict whether protein modifications and/or choice of label will result in a FFA responsive probe.
Site-directed mutagenesis was used to introduce a cysteine residue at positions 82 or 84, in place of the threonine residues that are normally at this position. Mutagenesis was carried out by annealing a synthetic prirner with a single mismatched base to the above derived expression vector. The primer was extended and ligated in vitro, and the resulting heteroduplex was used to transfect the host strain. The transfected host was screened for the mutated DNA by hybridization with the mutating oligonucleotide. Mutated plasmid DNA was isolated, retransformed into the host strain, and its structure confirmed by sequencing the recombinant DNA in regions defined by probes flanking the mutated region. This modified protein was expressed in the same system and purified by the same methods as for the native protein. Typical yields of purified protein were approximately 50 mg/liter cell culture. The mutated I-FABP protein was fluorescently derivatized by inserting a fluorescent group (which reacts specifically with free SH groups) at the newly created cysteine residue. The cysteine residue was inserted at positions 82 (replacing a threonine residue) and/or at residue 84 (also a threonine residue) since both these positions face outward from the FFA binding pocket but are in close proximity to the tryptophan at position 83 (about 3.5Å lateral separation along the b strand and about 10Å vertical separation between the centers of the tryptophan and fluorescent residues). […] Thus, either the direct emission of the fluorescent group and/or the rate of resonance energy transfer between Trp83 and the fluorescent group was postulated to change. In a non-limiting prior specific example, the dansyl derivative ACRYLODAN®(6-acryloly-2dimethylamenonaphthalene) was used to modify the mutated FABP and this probe was designated FAD508.
ADIFAB dose response to FFA and FFA aggregate formation was measured. […]

[4] = FA-ADIFAB Dissociation Constants, Kd, no added calcium, FIG. 6A, buffer A pH 7.4

CCCCC/C=C\C/C=C\C/C=C\C=C\[C@@H](O)CCCC(=O)O [5-HETE, (5S)-5-Hydroxy-6,8, 11,14-eicasatetaenoic acid]
change in ADIFAB fluorescence by the molecule itself [1]: none of these molecules, either themselves cause a change in ADIFAB fluorescence
displacement of oleic acid binding to ADIFAB [1]: nor do they displace oleic acid binding to ADIFAB

CCCCC/C=C\C/C=C\C/C=C\C/C=C\CCCC(=O)O [ARACHIDONATE, arachidonate]
Kd [2, 4]: 1.63 ± 0.03 µM
Kd ([2]; Kd in the presence of calcium, 1 mM calcium): 1.67 µM
Kd relative to oleate (fold greater than oleate) [2]: ~5.8 fold

CCCCC/C=C\C/C=C\CCCCCCCC(=O)O [LINOLEATE, linoleate]
Kd [2, 4]: 0.97 ± 0.02 µM
Kd relative to oleate (fold greater than oleate) [2]: ~3.5 fold

CC/C=C\C/C=C\C/C=C\CCCCCCCC(=O)O [LINOLENATE, linolenate]
ADIFAB sensitivity to FFA levels (lowest detectable level) [2]: about 20 nM
Kd [2, 4]: 2.5 ± 0.1 µM
Kd relative to oleate (fold greater than oleate) [2]: ~8.9 fold

C=CC1=C(C)/C(=C/c2[nH]c(Cc3[nH]c(/C=C4\NC(=O)C(C)=C4C=C)c(C)c3CCC(=O)O)c(CCC(=O)O)c2C)NC1=O [bilirubin]
change in ADIFAB fluorescence by the molecule itself [1]: none of these molecules, either themselves cause a change in ADIFAB fluorescence
displacement of oleic acid binding to ADIFAB [1]: nor do they displace oleic acid binding to ADIFAB

CCCCCCCCCCCC(=O)O [laurate]
Kd ([2]; laurate (12:0), binding detectable but considerably weaker, read-out: Kd (shorter chain FA, bound)): > 200 µM

CCCCC/C=C\C\C=C/C=C/C=C/[C@@H](SC[C@H](NC(=O)CC[C@H](N)C(=O)O)C(=O)NCC(=O)O)[C@@H](O)CCCC(=O)O [leukotriene C4]
change in ADIFAB fluorescence by the molecule itself [1]: none of these molecules, either themselves cause a change in ADIFAB fluorescence
displacement of oleic acid binding to ADIFAB [1]: nor do they displace oleic acid binding to ADIFAB

CCCCC[C@H](O)/C=C/[C@H]1C(=O)C[C@H](O)[C@@H]1C/C=C\CCCC(=O)O [prostaglandin D2]
change in ADIFAB fluorescence by the molecule itself [1]: none of these molecules, either themselves cause a change in ADIFAB fluorescence
displacement of oleic acid binding to ADIFAB [1]: nor do they displace oleic acid binding to ADIFAB

CCCCCCCCCCCCC/C=C/[C@@H](O)[C@@H](N)CO [sphingosine]
change in ADIFAB fluorescence by the molecule itself [1]: none of these molecules, either themselves cause a change in ADIFAB fluorescence
displacement of oleic acid binding to ADIFAB [1]: nor do they displace oleic acid binding to ADIFAB

lysolecithin
change in ADIFAB fluorescence by the molecule itself [1]: none of these molecules, either themselves cause a change in ADIFAB fluorescence
displacement of oleic acid binding to ADIFAB [1]: nor do they displace oleic acid binding to ADIFAB

B1: ADIFAB: Acrylodan derivatized recombinant native protein (I-FABP), labeled at Lys27 (conjugate, UniProt P02693 2-132, looked up)
Fatty acid-binding protein, …: AFDGTWKVDRNENYEKFMEKMGINVVKRKLGAHDNLKLTITQEGNKFTVKESSNFRNIDVVFELGVDFAYSLADGTELTGTWTMEGNKLVGKFKRVDNGKELIAVREISGNELIQTYTYEGVEAKRIFKKE
modifications: acrylodan label at Lys27
Kd of FA relative to the native protein (fold greater) ([3]; ADIFAB versus native I-FABP): about 10 fold
increase in the 505/432 emission ratio on addition of FFA ([3]; FIG. 6A, up to): ≤ 25 fold

B2: IANBDE derivative: Cys27 mutant of I-FABP (Lys27 to Cys27) labeled with IANBDE (conjugate, UniProt P02693 2-132, looked up, variant K27C)
Fatty acid-binding protein, …: AFDGTWKVDRNENYEKFMEKMGINVVCRKLGAHDNLKLTITQEGNKFTVKESSNFRNIDVVFELGVDFAYSLADGTELTGTWTMEGNKLVGKFKRVDNGKELIAVREISGNELIQTYTYEGVEAKRIFKKE
modifications: IANBDE (NBD ester) label
responsiveness of the probe to FA binding, in words [3]: among the most sensitive
reduction in intensity at 550 nm ([3]; with 1 mM oleate, I-FABP Cys27 mutant): 60%
